Source: patent US8969554B2, “6-acyl-1,2,4-triazine-3,5-dione derivative and herbicides” (Kumiai Chemical Industry Co., Ltd., priority 2010, dated 2015)

Tests used:
Type in all cases: in vivo
Echinochloa crus-galli [1] = assay: Herbicidal activity by field foliage treatment (Test example 3); design: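 index 0 to 10 in 10% steps of herbicidal effect with 10 meaning complete death and 0 below 10%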; settings: 1000 g effective component per hectare, day 14 after the treatment
Outline: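 Potted field-soil plants grown 2 weeks in a greenhouse were sprayed over the whole foliage with diluted wettable powder at 1000 L/ha, delivering 1000 g active ingredient per hectare. Herbicidal effect scored by visual criteria 14 days after treatment.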

Indian millet [2] = assay: Herbicidal activity by field soil treatment (Test example 2); design: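 index 0 to 10 in 10% steps of herbicidal effect with 10 meaning complete death and 0 below 10%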; settings: 1000 g effective component per hectare, day 21 after the treatment
Outline: (§1)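 Seeds were sown in field soil in 80 cm^2 pots and covered with soil. A water-diluted wettable powder was then sprayed onto the soil surface at 1000 liters per hectare, delivering 1000 g active ingredient per hectare. Plants grew in a greenhouse, and herbicidal effect was scored against set criteria 21 days after treatment.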

A. retroflexus [3] = assay: as above; design: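 index 0 to 10 in 10% steps of herbicidal effect with 10 meaning complete death and 0 below 10%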; settings: 1000 g effective component per hectare, day 21 after the treatment
Outline: as §1

Scirpus juncoides Rocxb. = assay: Herbicidal activity by paddy field soil treatment (Test Example 1); design: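 index 0 to 10 in 10% steps of herbicidal effect with 10 meaning complete death and 0 below 10%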; settings: applied on water surface, 1000 g of effective component per hectare, day 21 after the treatment
Outline: (§2)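 Seeds were sown in puddled paddy soil in pots flooded to 3 cm water depth; the next day a water-diluted wettable powder was applied to the water surface at 1000 g active ingredient/ha. Plants were grown in a greenhouse and herbicidal effect scored by graded criteria on day 21 after treatment.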

Monochoria vaginalis = assay: as above; design: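 index 0 to 10 in 10% steps of herbicidal effect with 10 meaning complete death and 0 below 10%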; settings: 1000 g of effective component per hectare, evaluated on day 21 after the treatment, criteria of Table 72
Outline: as §2

Echinochloa oryzicola = assay: as above; design: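 index 0 to 10 in 10% steps of herbicidal effect with 10 meaning complete death and 0 below 10%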; settings: 1000 g of effective component per hectare, evaluated on day 21 after the treatment, criteria of Table 72
Outline: as §2

Setaria viridis = assay: Herbicidal activity by field foliage treatment (Test example 3); settings: 1000 g effective component per hectare, day 14 after the treatment;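 also: index 0 to 10 in 10% steps of herbicidal effect with 10 meaning complete death and 0 below 10%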
Description: Test example 3 Test for Determining Herbicidal Activity by Field Foliage Treatment A 80 cm^2 wide plastic pot was filled with a field soil and seeds of each of Indian millet and A. retroflexus were sowed and then incubated for 2 weeks in a green house. The wettable powder produced with reference to the Formulation example 1 was diluted water, and applied from the air to entire body of the plant as foliage treatment by using a small sprayer in an amount of 1000 liters per hectare so that the effective component is 1000 g per hectare. After that, the plants were cultivated in a greenhouse, and on day 14 after the treatment, evaluation was made by the criteria described in Table 72 for determining the herbicidal effects.

Indian millet [4] = assay: as above; design: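 index 0 to 10 in 10% steps of herbicidal effect with 10 meaning complete death and 0 below 10%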; settings: 1000 g effective component per hectare, day 14 after the treatment
Outline: (§3)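 Plants were grown from seed in field soil in a greenhouse for 2 weeks, then sprayed over the whole foliage with a water-diluted wettable powder at 1000 L/ha spray volume, delivering 1000 g active ingredient per hectare. Herbicidal effect was scored on day 14 after treatment.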

A. retroflexus [5] = assay: as above; design: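 index 0 to 10 in 10% steps of herbicidal effect with 10 meaning complete death and 0 below 10%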; settings: 1000 g effective component per hectare, day 14 after the treatment
Outline: as §3

Echinochloa crus-galli [6] = assay: Herbicidal activity by field soil treatment (Test example 2); design: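 index 0 to 10 in 10% steps of herbicidal effect with 10 meaning complete death and 0 below 10%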; settings: 1000 g effective component per hectare, day 21 after the treatment
Outline: as §1

Cc1cc(Cl)cc(-n2c(=O)c(C(=O)C3=C(O)CCCC3=O)nn(C)c2=O)c1 [I-126]
herbicidal effect index, Echinochloa crus-galli (Echinochloa crus-galli [1]): 9
herbicidal effect index, Abutilon theophrasti (Indian millet [2]): 10
herbicidal effect index, Amaranthus retroflexus (A. retroflexus [3]): 10
herbicidal effect index, S. juncoides Rocxb. (Scirpus juncoides Rocxb.): 10
Herbicidal effects index number, Monochoria vaginalis (Monochoria vaginalis): 10
Herbicidal effects index number, Echinochloa oryzicola (Echinochloa oryzicola): 10
herbicidal effect index, Setaria viridis (Setaria viridis): 7
herbicidal effect index, Abutilon theophrasti (Indian millet [4]): 9
herbicidal effect index, Amaranthus retroflexus (A. retroflexus [5]): 10

O=C1CCCC(O)=C1C(=O)c1nn(C(F)F)c(=O)n(-c2ccccc2)c1=O [I-261]
herbicidal effect index, Abutilon theophrasti (Indian millet [2]): 10
herbicidal effect index, S. juncoides Rocxb. (Scirpus juncoides Rocxb.): 8
Herbicidal effects index number, Monochoria vaginalis (Monochoria vaginalis): 10
Herbicidal effects index number, Echinochloa oryzicola (Echinochloa oryzicola): 8
herbicidal effect index, Setaria viridis (Setaria viridis): 7
herbicidal effect index, Abutilon theophrasti (Indian millet [4]): 10
herbicidal effect index, Amaranthus retroflexus (A. retroflexus [5]): 10

Cn1nc(C(=O)O)c(=O)n(-c2cc(C(F)(F)F)cc(C(F)(F)F)c2)c1=O [V-364]
herbicidal effect index, Echinochloa crus-galli (Echinochloa crus-galli [1]): 8
herbicidal effect index, Abutilon theophrasti (Indian millet [2]): 7
herbicidal effect index, Amaranthus retroflexus (A. retroflexus [3]): 8
herbicidal effect index, S. juncoides Rocxb. (Scirpus juncoides Rocxb.): 10
Herbicidal effects index number, Monochoria vaginalis (Monochoria vaginalis): 10
Herbicidal effects index number, Echinochloa oryzicola (Echinochloa oryzicola): 10
herbicidal effect index, Setaria viridis (Setaria viridis): 9
herbicidal effect index, Abutilon theophrasti (Indian millet [4]): 10
herbicidal effect index, Amaranthus retroflexus (A. retroflexus [5]): 10

Cn1nc(C(=O)C2=C(O)CCCC2=O)c(=O)n(-c2cc(C(F)(F)F)cc(C(F)(F)F)c2)c1=O [I-470]
herbicidal effect index, Echinochloa crus-galli (Echinochloa crus-galli [1]): 8
herbicidal effect index, Abutilon theophrasti (Indian millet [2]): 7
herbicidal effect index, Amaranthus retroflexus (A. retroflexus [3]): 8
herbicidal effect index, S. juncoides Rocxb. (Scirpus juncoides Rocxb.): 10
Herbicidal effects index number, Monochoria vaginalis (Monochoria vaginalis): 10
Herbicidal effects index number, Echinochloa oryzicola (Echinochloa oryzicola): 10
herbicidal effect index, Setaria viridis (Setaria viridis): 9
herbicidal effect index, Abutilon theophrasti (Indian millet [4]): 10
herbicidal effect index, Amaranthus retroflexus (A. retroflexus [5]): 10

Cn1nc(C(=O)O)c(=O)n(-c2c(F)c(F)cc(F)c2F)c1=O [V-363]
herbicidal effect index, Echinochloa crus-galli (Echinochloa crus-galli [1]): 10
herbicidal effect index, S. juncoides Rocxb. (Scirpus juncoides Rocxb.): 10
Herbicidal effects index number, Monochoria vaginalis (Monochoria vaginalis): 10
Herbicidal effects index number, Echinochloa oryzicola (Echinochloa oryzicola): 10
herbicidal effect index, Setaria viridis (Setaria viridis): 10
herbicidal effect index, Abutilon theophrasti (Indian millet [4]): 10
herbicidal effect index, Amaranthus retroflexus (A. retroflexus [5]): 10

CC(=O)Cn1c(=O)c(C(=O)C2=C(O)CCCC2=O)nn(C)c1=O [I-328]
herbicidal effect index, Echinochloa crus-galli (Echinochloa crus-galli [1]): 7
herbicidal effect index, S. juncoides Rocxb. (Scirpus juncoides Rocxb.): 10
Herbicidal effects index number, Monochoria vaginalis (Monochoria vaginalis): 10
Herbicidal effects index number, Echinochloa oryzicola (Echinochloa oryzicola): 10
herbicidal effect index, Setaria viridis (Setaria viridis): 7
herbicidal effect index, Abutilon theophrasti (Indian millet [4]): 10
herbicidal effect index, Amaranthus retroflexus (A. retroflexus [5]): 10

Cn1nc(C(=O)C2=C(O)CCCC2=O)c(=O)n(-c2c(F)c(F)cc(F)c2F)c1=O [I-469]
herbicidal effect index, Echinochloa crus-galli (Echinochloa crus-galli [1]): 10
herbicidal effect index, S. juncoides Rocxb. (Scirpus juncoides Rocxb.): 10
Herbicidal effects index number, Monochoria vaginalis (Monochoria vaginalis): 10
Herbicidal effects index number, Echinochloa oryzicola (Echinochloa oryzicola): 10
herbicidal effect index, Setaria viridis (Setaria viridis): 10
herbicidal effect index, Abutilon theophrasti (Indian millet [4]): 10
herbicidal effect index, Amaranthus retroflexus (A. retroflexus [5]): 10

Cn1nc(C(=O)O)c(=O)n(CC(=O)C(C)(C)C)c1=O [V-362]
herbicidal effect index, Echinochloa crus-galli (Echinochloa crus-galli [1]): 9
herbicidal effect index, Amaranthus retroflexus (A. retroflexus [3]): 7
herbicidal effect index, S. juncoides Rocxb. (Scirpus juncoides Rocxb.): 10
Herbicidal effects index number, Monochoria vaginalis (Monochoria vaginalis): 10
Herbicidal effects index number, Echinochloa oryzicola (Echinochloa oryzicola): 10
herbicidal effect index, Setaria viridis (Setaria viridis): 9
herbicidal effect index, Abutilon theophrasti (Indian millet [4]): 10
herbicidal effect index, Amaranthus retroflexus (A. retroflexus [5]): 10

COc1cc(-n2c(=O)c(C(=O)C3=C(O)CCCC3=O)nn(C)c2=S)cc(OC)c1OC [I-464]
herbicidal effect index, Amaranthus retroflexus (A. retroflexus [3]): 7
herbicidal effect index, S. juncoides Rocxb. (Scirpus juncoides Rocxb.): 10
Herbicidal effects index number, Monochoria vaginalis (Monochoria vaginalis): 10
Herbicidal effects index number, Echinochloa oryzicola (Echinochloa oryzicola): 10
herbicidal effect index, Setaria viridis (Setaria viridis): 7
herbicidal effect index, Abutilon theophrasti (Indian millet [4]): 10
herbicidal effect index, Amaranthus retroflexus (A. retroflexus [5]): 10

Cc1cccc(F)c1-n1c(=O)c(C(=O)C2=C(O)CCCC2=O)nn(C)c1=O [I-110]
herbicidal effect index, Echinochloa crus-galli (Echinochloa crus-galli [1]): 9
herbicidal effect index, Abutilon theophrasti (Indian millet [2]): 10
herbicidal effect index, Amaranthus retroflexus (A. retroflexus [3]): 10
herbicidal effect index, Echinochloa crus-galli (Echinochloa crus-galli [6]): 7
herbicidal effect index, S. juncoides Rocxb. (Scirpus juncoides Rocxb.): 10
Herbicidal effects index number, Monochoria vaginalis (Monochoria vaginalis): 10
Herbicidal effects index number, Echinochloa oryzicola (Echinochloa oryzicola): 10
herbicidal effect index, Abutilon theophrasti (Indian millet [4]): 9
herbicidal effect index, Amaranthus retroflexus (A. retroflexus [5]): 9

COc1cc(-n2c(=O)c(C(=O)C3=C(O)C(C)(C)C(=O)C(C)(C)C3=O)nn(C)c2=O)cc(OC)c1OC [VI-97]
herbicidal effect index, Echinochloa crus-galli (Echinochloa crus-galli [1]): 7
herbicidal effect index, S. juncoides Rocxb. (Scirpus juncoides Rocxb.): 10
Herbicidal effects index number, Monochoria vaginalis (Monochoria vaginalis): 10
Herbicidal effects index number, Echinochloa oryzicola (Echinochloa oryzicola): 10
herbicidal effect index, Setaria viridis (Setaria viridis): 10
herbicidal effect index, Abutilon theophrasti (Indian millet [4]): 10
herbicidal effect index, Amaranthus retroflexus (A. retroflexus [5]): 10

Cc1cccc(-n2c(=O)c(C(=O)C3=C(O)CCCC3=O)nn(C)c2=O)c1F [I-107]
herbicidal effect index, Echinochloa crus-galli (Echinochloa crus-galli [1]): 7
herbicidal effect index, Abutilon theophrasti (Indian millet [2]): 10
herbicidal effect index, Amaranthus retroflexus (A. retroflexus [3]): 10
herbicidal effect index, Echinochloa crus-galli (Echinochloa crus-galli [6]): 8
herbicidal effect index, S. juncoides Rocxb. (Scirpus juncoides Rocxb.): 10
Herbicidal effects index number, Monochoria vaginalis (Monochoria vaginalis): 10
Herbicidal effects index number, Echinochloa oryzicola (Echinochloa oryzicola): 10
herbicidal effect index, Abutilon theophrasti (Indian millet [4]): 9
herbicidal effect index, Amaranthus retroflexus (A. retroflexus [5]): 10

Cn1nc(C(=O)C2=C(O)CCCC2=O)c(=O)n(CC(=O)C(C)(C)C)c1=O [I-468]
herbicidal effect index, Echinochloa crus-galli (Echinochloa crus-galli [1]): 9
herbicidal effect index, Amaranthus retroflexus (A. retroflexus [3]): 7
herbicidal effect index, S. juncoides Rocxb. (Scirpus juncoides Rocxb.): 10
Herbicidal effects index number, Monochoria vaginalis (Monochoria vaginalis): 10
Herbicidal effects index number, Echinochloa oryzicola (Echinochloa oryzicola): 10
herbicidal effect index, Setaria viridis (Setaria viridis): 9
herbicidal effect index, Abutilon theophrasti (Indian millet [4]): 10
herbicidal effect index, Amaranthus retroflexus (A. retroflexus [5]): 10
